Results reported in paper PMC6207715, “Determination of extended substrate specificity of the MALT1 as a strategy for the design of potent substrates and activity-based probes” (Scientific Reports, 2018).
Non-standard residues stand in square brackets, D forms with d. *: point of attachment. ACC = NC(=O)Cc1cc(=O)oc2cc(N*)ccc12; Abu = CC[C@H](N)C(=O)O

Experiments:
Type in all cases: biochemical
MALT1 [1] = molecular target: T1, MALT1 (Homo sapiens, UniProt Q9UDY8); assay: Kinetic assay of ACC fluorogenic substrates (kcat, Km, kcat/Km)
T1 sequence (Q9UDY8 1-824): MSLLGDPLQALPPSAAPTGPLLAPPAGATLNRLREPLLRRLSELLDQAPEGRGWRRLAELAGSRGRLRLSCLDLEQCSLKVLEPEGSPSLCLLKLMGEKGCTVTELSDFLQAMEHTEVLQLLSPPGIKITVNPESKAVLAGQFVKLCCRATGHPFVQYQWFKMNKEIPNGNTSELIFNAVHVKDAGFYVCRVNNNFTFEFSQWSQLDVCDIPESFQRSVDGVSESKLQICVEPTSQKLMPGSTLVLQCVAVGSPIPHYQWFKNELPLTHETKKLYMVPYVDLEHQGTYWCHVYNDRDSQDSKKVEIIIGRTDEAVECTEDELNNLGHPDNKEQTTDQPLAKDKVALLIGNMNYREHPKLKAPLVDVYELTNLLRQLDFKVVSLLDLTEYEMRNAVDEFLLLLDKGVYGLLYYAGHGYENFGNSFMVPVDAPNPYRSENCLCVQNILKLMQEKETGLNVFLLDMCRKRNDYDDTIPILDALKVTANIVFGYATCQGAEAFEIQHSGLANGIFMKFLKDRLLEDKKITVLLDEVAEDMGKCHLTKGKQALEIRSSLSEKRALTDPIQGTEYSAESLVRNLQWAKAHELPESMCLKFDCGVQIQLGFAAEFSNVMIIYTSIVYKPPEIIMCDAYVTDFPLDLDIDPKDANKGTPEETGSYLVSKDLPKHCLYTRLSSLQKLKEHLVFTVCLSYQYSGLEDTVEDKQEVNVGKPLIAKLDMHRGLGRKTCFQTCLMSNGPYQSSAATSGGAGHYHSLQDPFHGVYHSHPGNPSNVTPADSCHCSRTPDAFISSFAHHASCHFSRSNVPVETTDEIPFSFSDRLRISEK
Description: Figure 2 MALT1 substrate activity. Panel a. kcat/Km values for MALT1 substrates compared with that of the reference substrate (ALVSR). MALT1 was incubated at 37 °C for 30 minutes and added to the wells containing the substrate at varying concentrations. Relative fluorescence units were measured over time at excitation/emission wavelengths of 355/460 nm for at least 10 minutes. The data represent averages of three separate measurements, and error bars represent standard deviations. Panel b. Structure of our best (lower panel) and the reference (upper panel) MALT1 fluorogenic substrate.
(§1) All kinetic assays were performed with a Spectra Max Gemini XPS spectrofluorimeter (Molecular Devices) and 96-well Corning plates. The measurement characteristics were as follows: 37 °C, excitation/emission wavelength of 355/460 nm, cutoff of 455 nm, and varying concentrations of substrates and enzyme. The assay buffer was prepared at 23 °C and contained 50 mM HEPES (2-[4-(2-hydroxyethyl)piperazin-1-yl]ethanesulfonic acid), 100 mM NaCl, 0.9 M sodium citrate and 10 mM dithiothreitol (DTT) (pH 7.5). MALT1^FL or MALT1^CD were preincubated for 30 minutes at 37 °C before being added to wells containing substrate. Next, the increase in fluorescence was recorded over the time. Only the linear portions of the curves were used for calculations. The kcat and Km values were calculated using GraphPad Prism and Microsoft Excel software. All measurements were repeated three times, and the data presented are averages of these replicates. […]
was carried out after each coupling and Fmoc deprotection step. The N terminus was protected with an acetyl group using 5 eq AcOH, 5 eq HBTU, and 5 eq DIPEA in DMF.
After solvent removal, the resin was washed six times with DMF in order to remove excess reagents, three times with DCM, and three times with MeOH and then dried over P2O5 and cleaved from the resin with a TFA/TIPS/H2O mixture (%, v/v/v, 95:2.5:2.5).
The crude product was purified by HPLC and lyophilized. The purity of each substrate was confirmed by analytical HPLC, and each substrate was analyzed using HRMS.
(§2) Substrates were dissolved in peptide-grade DMSO to a concentration of 20 mM and stored at -80°C until use.
(§3) Calculation of kcat, Km and kcat/Km values
(§4) Kinetic parameters were calculated under the same conditions as the library with slight modification. The total reaction volume in each well was 100 μL. The substrate and enzyme concentrations used ranged from 3.90 μM to 150 μM and 40 μM, respectively.
(§5) The increase in relative fluorescence units was monitored for 20-30 minutes, and only the linear parts of the curves were used to determine the rate of the reaction. The kcat and Km values were calculated using GraphPad Prism software. All measurements were repeated three times using the appropriate concentration of the enzyme, and the data presented are averages of these repetitions.

MALT1^FL = molecular target: T2, MALT1^FL (Homo sapiens, UniProt Q9UDY8); assay: Kinetic assay of IQF substrates, full-length enzyme; details: IQF substrate, ACC/Lys(Dnp) pair; 37 °C, assay buffer pH 7.5; 355/460 nm; average of three
T2 construct: treating full-length MALT1 (MALT1^FL), the MALT1 catalytic domain (MALT1^CD)
T2 sequence (Q9UDY8 1-824): T1 sequence (Q9UDY8 1-824)
Description: as §1, §2, §3, §4, §5

MALT1^CD = molecular target: T3, MALT1^CD (Homo sapiens, UniProt Q9UDY8); assay: Kinetic assay of IQF substrates, catalytic domain; details: IQF substrate, ACC/Lys(Dnp) pair; 37 °C, assay buffer pH 7.5; 355/460 nm; average of three
T3 construct: the MALT1 catalytic domain (MALT1^CD)
T3 sequence (Q9UDY8 348-562 limits assumed): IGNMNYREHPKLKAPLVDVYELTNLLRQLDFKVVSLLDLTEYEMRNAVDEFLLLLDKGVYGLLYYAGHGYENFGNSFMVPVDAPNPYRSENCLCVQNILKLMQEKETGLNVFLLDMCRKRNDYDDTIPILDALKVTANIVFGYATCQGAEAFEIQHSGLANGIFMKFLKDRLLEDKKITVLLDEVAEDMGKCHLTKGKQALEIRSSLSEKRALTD
Description: as §1, §2, §3, §4, §5

[2] = test system: MALT1 in RAW 264.7 cell lysates; assay: Labeling of active MALT1 in RAW 264.7 cell lysates; details: RAW 264.7 lysates pretreated with 1 µL of 10 mM mepazine, then 500 nM PKG105
Description: Figure 3 Probe to detect active MALT1. Panel a. Structure of the MALT1 probe (PKG105). Panel b. RAW 264.7 cell lysates were incubated with PKG105 at various concentrations. As a control, lysates were pretreated with mepazine, followed by incubation with probe. Lysates that were not treated with mepazine were also used. SDS-PAGE was performed at 165 V. Fluorescence was scanned using the 700 nm channel (LI-COR). Gels are representative of at least two replicates. TEXT PRINTED IN THE PICTURE: (a) PKG105: kobs/I = 92,000 M^-1s^-1
Twenty-five microliters of RAW 264.7 cell lysates (from 5 * 10^6 cells/mL) were incubated with PKG105 at concentrations ranging from 8 to 500 nM. As controls, cells that were not incubated with probe or cells that were pretreated with 1 µL of 10 mM mepazine were treated with 500 nM PKG105. The lysates were incubated with the probe for 30 minutes at 37 °C, followed by denaturation in 3 × SDS-loading buffer for 5 minutes at 95 °C. SDS-PAGE was performed under reducing conditions for 37 minutes at 165 V. The fluorescence signal in the gel was measured using a Li-Cor (Odyssey®) at a wavelength of 700 nm.

MALT1 [3] = molecular target: T1, MALT1; assay: P5 library screening (Ac-P5-LVSR-ACC); details: 100 nM MALT1, 1 µM substrate, 37 °C; 355/460 nm; average of three
Description: Figure 1 MALT1 S5-S2 substrate preferences. Panel a. Substrate preferences of the MALT1 S4-S2 pockets; 100 μM library component was treated with 130 nM active site-titrated MALT1 in assay buffer containing 50 mM HEPES, 100 mM NaCl, 0.9 M sodium citrate and 10 mM DTT at pH 7.5. Panel b. Structures of the preferred amino acid residues at the P4-P2 positions of MALT1. Panel c. MALT1 P5 specificity. Specificity profile of MALT1 was determined with the library of general structure Ac-P5-LVSR-ACC; 100 nM MALT1 was incubated at 37 °C for 10 minutes, followed by the addition of 1 µM substrate. Relative fluorescence units were measured over time at excitation/emission wavelengths of 355/460 nm for at least 10 minutes. The data represent averages of three separate measurements, and error bars represent standard deviations.

[4] = 37 °C, 50 mM HEPES, 100 mM NaCl, 0.9 M sodium citrate, 10 mM DTT, pH 7.5, substrate 3.90-150 μM, ACC fluorescence 355/460 nm, average of three measurements

In the case of Ac-Phe(guan)-LVPR-ACC-OH, the kcat/Km (MALT1 [1]; [4]) is reported as 28,000 s^−1M^−1, the “rate of substrate hydrolysis (kcat/Km)” value (MALT1 [1]; estimated) is reported as 28,000 M^−1s^−1 and the “kcat/Km relative to the best reported substrate to date” value (MALT1 [1]; times higher) is reported as “approximately 3.5 times”.

Compound “Ac-ALVSR-{ACC} (SMILES CC(=O)N[C@@H](C)C(=O)N[C@@H](CC(C)C)C(=O)N[C@H](C(=O)N[C@@H](CO)C(=O)N[C@@H](CCCNC(=N)N)C(=O)Nc1ccc2c(CC(N)=O)cc(=O)oc2c1)C(C)C) [Ac-Ala-LVSR-ACC, reference compound]” has a Km (MALT1 [1]; [4]) of 9.45 ± 2.46 µM and a kcat (MALT1 [1]; [4]) of 0.089 ± 0.033 s⁻¹.

With “Ac-[Abu]LVSR-{ACC} (SMILES CC[C@H](NC(C)=O)C(=O)N[C@@H](CC(C)C)C(=O)N[C@H](C(=O)N[C@@H](CO)C(=O)N[C@@H](CCCNC(=N)N)C(=O)Nc1ccc2c(CC(N)=O)cc(=O)oc2c1)C(C)C) [Ac-Abu-LVSR-ACC]” the Km (MALT1 [1]; [4]) was 22.15 ± 0.01 µM and the kcat (MALT1 [1]; [4]) was 0.19 ± 0.0295 s⁻¹.

For “H2N-ACC-Ahx-A-L-V-S-R–G-Nva-K(Dnp)G-OH [Substrate M1]”, the “kcat/Km, MALT1^FL” value (MALT1^FL) was 4.8 * 10^3 ± 362 M^−1s^−1 and the “kcat/Km, MALT1^CD” value (MALT1^CD) was 3.5 * 10^3 ± 165 M^−1s^−1.

For `CN1CCCC(CN2c3ccccc3Sc3ccccc32)C1` (stereo not shown) [Mepazine, reference compound], the “effect of inhibitor pretreatment on probe labeling” value [2] was “inhibited MALT1”.

Compound “Ac-KLVSR-{ACC} (SMILES CC(=O)N[C@@H](CCCCN)C(=O)N[C@@H](CC(C)C)C(=O)N[C@H](C(=O)N[C@@H](CO)C(=O)N[C@@H](CCCNC(=N)N)C(=O)Nc1ccc2c(CC(N)=O)cc(=O)oc2c1)C(C)C) [Ac-Lys-LVSR-ACC]” has a Km (MALT1 [1]; [4]) of 25.5 ± 3.56 µM and a kcat (MALT1 [1]; [4]) of 0.12 ± 0.0010 s⁻¹.

With Ac-Y(Bzl)-L-V-S-R-ACC-OH the “activity at the P5 position in the library screen” value (MALT1 [3]) was “least active”.
